According to patent US20240269296A1, “ANTIOXIDANT NUCLEOLIPID PRODRUG, PHARMACEUTICAL COMPOSITION FOR ADMINISTRATION THEREOF, AND THERAPEUTIC USES THEREOF” (UNIVERSITE DE BORDEAUX, priority 2021, published 2024):

System: keratinocytes
Assay: Antioxidant effect on keratinocytes: ROS by flow cytometry with CM-H2DCFDA after solar simulator irradiation
Type: cell-based
Conditions: 2nd experiment: incubation 48 h, 0.5% w/v in the culture medium
Source text: The assessment of the antioxidant effect of the compositions C3 and C4 according to the invention has been based on the dosage of the amount of reactive oxygen species (ROS) produced in the medium by flow cytometry, after setting the cells treated with these compositions in presence with the oxidative stress indicator CM-H2DCFDA (5-(and-6)-chlorométhyl-2′,7′-dichlorodihydrofluorescein diacetate, acetyl ester) (Invitrogen®). By cleavage of its acetate groups with esterases and its intracellular oxidation by the ROS, this non-fluorescent indicator is converted into highly-fluorescent dichlorofluorescein 2′,7′ (DCF). Thus, the measurement of the fluorescence intensity allows deducing the amount of DCF, and consequently of ROS, in the cell medium. […]
Afterwards, the cells have been detached by tryptinisation by means of trypsin at 0.0025% and EDTA at 0.01% for 10 min at 37° C., neutralised by fetal calf serum at 10% and separated from the medium by centrifugation. […] Afterwards, the fluorescence has been read by a flow cytometer Accuri® 6.
The obtained results, expressed in % of mean fluorescence intensity (MFI) with respect to the non-irradiated (and without C4) control condition, are shown in FIG. 11. […]

SMILES: Cc1c(C)c2c(c(C)c1O)CC[C@@](C)(CCC[C@H](C)CCC[C@H](C)CCCC(C)C)O2 [α-tocopherol]
- production of ROS (% of mean fluorescence intensity vs non-irradiated control): strongly inhibits the production of ROS
